Experimental data reported in patent US20250368623A1, “PYRIDAZINONE-DERIVED COMPOUNDS FOR THE MODULATION OF MYC AND FOR MEDICAL USES” (GENETIC INTELLIGENCE, INC, priority 2022, published 2025).
Like-named read-outs stand apart in the source and are kept apart here.

What was measured:
[1] = Body weight and clinical signs in the mouse xenograft study; type: in vivo; conditions: 15-100 mg/kg orally once daily for 3 weeks, throughout the study
Protocol: (§1) The in vivo efficacy of test compounds (e.g., 6-(2,4-dimethylthiazol-5-yl)-2-((1-(pyrido[2,3-d]pyrimidin-4-yl)piperidin-4-yl)methyl)pyridazin-3(2H)-one) on cancer cells is determined using a mouse xenograft model of TNBC (MDA-MB-231). 5×10^6 MDA-MB-231 cells (in 0.2 ml of FBS-free medium containing 50% Matrigel) are injected into the subcutaneous tissue of each mouse. Treatment is initiated (Day 0) when the average tumor volume reaches 100 mm^3. Tumor bearing mice are treated with vehicle and different doses of test compound (15 mg/kg, 35 mg/kg, 50 mg/kg, and 100 mg/kg) orally, once daily, for 3 weeks. Tumor volumes (mm^3) are measured post-implantation of cells once every 2-3 days throughout the study. At the end of the treatment period, a portion of the tumor tissue is excised and homogenized to analyze the levels of MYC biomarker using ELISA. Blood samples are collected from mice treated with test compound 8 hours after the final dose.

[2] = tested on: MYC; assay: MYC biomarker in tumor homogenate by ELISA, xenograft mice; type: in vivo, mouse; conditions: for MYC protein levels in tumor homogenate, Mean ± SD: ELISA, vehicle control 41.93 ± 5.38
Protocol: as §1

[3] = Body weight and clinical signs in the mouse hollow fiber study; type: in vivo; conditions: mice, 50 mg/kg orally once daily for 5 days
Protocol: The in vivo efficacy of test compounds (e.g., 6-(2,4-dimethylthiazol-5-yl)-2-((1-(pyrido[2,3-d]pyrimidin-4-yl)piperidin-4-yl)methyl)pyridazin-3(2H)-one) on cancer cells is determined using the mouse hollow fiber model established at the National Cancer Institute (NCI). Triple negative breast cancer (TNBC) (MDA-MB-231), pancreatic cancer (Mia-PaCa-2), and liver cancer (HepG2) cells are added to differently colored hollow fibers (KrosoFlo@Implant membrane, Green: Lot No.: 20051617, Blue: Lot No.: 20008858, White: Lot No.: 20051615) and sealed at both ends. Three hollow fibers each containing a different cancer line are surgically implanted subcutaneously into both the left and right flanks of mice (total of six hollow fibers per mouse). Drug treatment is initiated on Day 0, three days post implantation of fibers. Each treatment group has 2 mice (4 hollow fibers per cancer type): Group 1: Vehicle control; Group 2: Gemcitabine control dosed intraperitoneally (i.p.) at 50 mg/kg once every three days; Group 3: Test compound dosed orally at 50 mg/kg once daily for five days. […] Mean % net cell growth is calculated using the formula [(mean OD(day5)−mean OD(day0))/(mean OD(day0))×100%]. Mean % inhibition of cell growth due to treatment is calculated relative to the mean % net cell growth of the Day 5 vehicle control for the particular cancer line. […]

[4] = tested on: MDA-MB-231; assay: Mouse xenograft model of TNBC (MDA-MB-231), tumor volume and histopathology; type: in vivo
Protocol: as §1

[5] = tested on: Mia-PaCa-2; assay: Mouse hollow fiber model, pancreatic cancer (Mia-PaCa-2); type: in vivo; conditions: pancreatic cancer Mia-PaCa-2 hollow fibers s.c. in mice; 50 mg/kg orally once daily for five days; modified MTT; vs Day 5 vehicle
Protocol: (§2) The in vivo efficacy of test compounds (e.g., 6-(2,4-dimethylthiazol-5-yl)-2-((1-(pyrido[2,3-d]pyrimidin-4-yl)piperidin-4-yl)methyl)pyridazin-3(2H)-one) on cancer cells is determined using the mouse hollow fiber model established at the National Cancer Institute (NCI). Triple negative breast cancer (TNBC) (MDA-MB-231), pancreatic cancer (Mia-PaCa-2), and liver cancer (HepG2) cells are added to differently colored hollow fibers (KrosoFlo@Implant membrane, Green: Lot No.: 20051617, Blue: Lot No.: 20008858, White: Lot No.: 20051615) and sealed at both ends. Three hollow fibers each containing a different cancer line are surgically implanted subcutaneously into both the left and right flanks of mice (total of six hollow fibers per mouse). Drug treatment is initiated on Day 0, three days post implantation of fibers. Each treatment group has 2 mice (4 hollow fibers per cancer type): Group 1: Vehicle control; Group 2: Gemcitabine control dosed intraperitoneally (i.p.) at 50 mg/kg once every three days; Group 3: Test compound dosed orally at 50 mg/kg once daily for five days. […] Mean % net cell growth is calculated using the formula [(mean OD(day5)−mean OD(day0))/(mean OD(day0))×100%]. Mean % inhibition of cell growth due to treatment is calculated relative to the mean % net cell growth of the Day 5 vehicle control for the particular cancer line.

[6] = tested on: HepG2; assay: Mouse hollow fiber model, liver cancer (HepG2); type: in vivo; conditions: liver cancer HepG2 hollow fibers s.c. in mice; 50 mg/kg orally once daily for five days; modified MTT; vs Day 5 vehicle
Protocol: as §2

[7] = tested on: MDA-MB-231; assay: Mouse hollow fiber model, TNBC (MDA-MB-231); type: in vivo; conditions: TNBC MDA-MB-231 hollow fibers s.c. in mice; 50 mg/kg orally once daily for five days; modified MTT; vs Day 5 vehicle
Protocol: as §2

[8] = Plasma concentration of test compound in xenograft mice; type: in vivo, mouse; conditions: for concentration at 8 h: mouse, plasma, oral, tumor bearing mice, read-out: Test compound concentrations in plasma 8 h after last dose, Mean ± SD
Protocol: as §1

[9] = 15 mg/kg orally once daily for 3 weeks
[10] = 35 mg/kg orally once daily for 3 weeks
[11] = 50 mg/kg orally once daily for 3 weeks
[12] = 100 mg/kg orally once daily for 3 weeks
[13] = 15-100 mg/kg orally once daily for 3 weeks

Cc1nc(C)c(-c2ccc(=O)n(CC3CCN(c4ncnc5ncccc45)CC3)n2)s1 [test compound, 6-(2,4-dimethylthiazol-5-yl)-2-((1-(pyrido[2,3-d]pyrimidin-4-yl)piperidin-4-yl)methyl)pyridazin-3(2H)-one]
Body weight and clinical signs of animals [1]: apparently normal | MYC protein levels in tumor homogenate, Mean ± SD [2, 9]: 35.70 ± 2.45 ng/mg tumor homogenate | MYC protein levels in tumor homogenate, Mean ± SD [2, 10]: 29.55 ± 2.93 ng/mg tumor homogenate | MYC protein levels in tumor homogenate, Mean ± SD [2, 11]: 29.11 ± 4.66 ng/mg tumor homogenate | MYC protein levels in tumor homogenate, Mean ± SD [2, 12]: 23.53 ± 4.28 ng/mg tumor homogenate | MYC biomarker levels in the tumor, trend with dose [2, 13]: dose-dependent decreases | changes in body weight versus the vehicle-treated group [3]: no significant changes | Tumor volume, Mean ([4]; 15 mg/kg orally once daily, Day 0): 93 mm^3 | Tumor volume, Mean ([4]; 15 mg/kg orally once daily, Day 2): 137 mm^3 | Tumor volume, Mean ([4]; 15 mg/kg orally once daily, Day 5): 212 mm^3 | Tumor volume, Mean ([4]; 15 mg/kg orally once daily, Day 8): 330 mm^3 | Tumor volume, Mean ([4]; 15 mg/kg orally once daily, Day 10): 435 mm^3 | Tumor volume, Mean ([4]; 15 mg/kg orally once daily, Day 12): 534 mm^3 | Tumor volume, Mean ([4]; 15 mg/kg orally once daily, Day 14): 749 mm^3 | Tumor volume, Mean ([4]; 15 mg/kg orally once daily, Day 16): 921 mm^3 | Tumor volume, Mean ([4]; 15 mg/kg orally once daily, Day 19): 1157 mm^3 | Tumor volume, Mean ([4]; 15 mg/kg orally once daily, Day 21): 1494 mm^3 | Tumor volume, Mean ([4]; 35 mg/kg orally once daily, Day 0): 92 mm^3 | Tumor volume, Mean ([4]; 35 mg/kg orally once daily, Day 2): 129 mm^3 | Tumor volume, Mean ([4]; 35 mg/kg orally once daily, Day 5): 191 mm^3 | Tumor volume, Mean ([4]; 35 mg/kg orally once daily, Day 8): 307 mm^3 | Tumor volume, Mean ([4]; 35 mg/kg orally once daily, Day 10): 390 mm^3 | Tumor volume, Mean ([4]; 35 mg/kg orally once daily, Day 12): 485 mm^3 | Tumor volume, Mean ([4]; 35 mg/kg orally once daily, Day 14): 739 mm^3 | Tumor volume, Mean ([4]; 35 mg/kg orally once daily, Day 16): 897 mm^3 | Tumor volume, Mean ([4]; 35 mg/kg orally once daily, Day 19): 1101 mm^3 | Tumor volume, Mean ([4]; 35 mg/kg orally once daily, Day 21): 1459 mm^3 | Tumor volume, Mean ([4]; 50 mg/kg orally once daily, Day 0): 94 mm^3 | Tumor volume, Mean ([4]; 50 mg/kg orally once daily, Day 2): 123 mm^3 | Tumor volume, Mean ([4]; 50 mg/kg orally once daily, Day 5): 191 mm^3 | Tumor volume, Mean ([4]; 50 mg/kg orally once daily, Day 8): 295 mm^3 | Tumor volume, Mean ([4]; 50 mg/kg orally once daily, Day 10): 368 mm^3 | Tumor volume, Mean ([4]; 50 mg/kg orally once daily, Day 12): 463 mm^3 | Tumor volume, Mean ([4]; 50 mg/kg orally once daily, Day 14): 716 mm^3 | Tumor volume, Mean ([4]; 50 mg/kg orally once daily, Day 16): 875 mm^3 | Tumor volume, Mean ([4]; 50 mg/kg orally once daily, Day 19): 1078 mm^3 | Tumor volume, Mean ([4]; 50 mg/kg orally once daily, Day 21): 1397 mm^3 | Tumor volume, Mean ([4]; 100 mg/kg orally once daily, Day 0): 88 mm^3 | Tumor volume, Mean ([4]; 100 mg/kg orally once daily, Day 2): 126 mm^3 | Tumor volume, Mean ([4]; 100 mg/kg orally once daily, Day 5): 186 mm^3 | Tumor volume, Mean ([4]; 100 mg/kg orally once daily, Day 8): 290 mm^3 | Tumor volume, Mean ([4]; 100 mg/kg orally once daily, Day 10): 363 mm^3 | Tumor volume, Mean ([4]; 100 mg/kg orally once daily, Day 12): 458 mm^3 | Tumor volume, Mean ([4]; 100 mg/kg orally once daily, Day 14): 652 mm^3 | Tumor volume, Mean ([4]; 100 mg/kg orally once daily, Day 16): 782 mm^3 | Tumor volume, Mean ([4]; 100 mg/kg orally once daily, Day 19): 933 mm^3 | Tumor volume, Mean ([4]; 100 mg/kg orally once daily, Day 21): 1158 mm^3 | Histopathology of tumors compared to the vehicle [4, 13]: dose-dependent decrease in tumor cells, increase in necrosis and decrease in blood vessel formation | mean tumor volumes compared to the vehicle control on day 21 [4, 13]: dose-dependent decreases | growth inhibition (mean % inhibition of cell growth) [5]: 63.0% | growth inhibition (mean % inhibition of cell growth) [6]: 28.1% | growth inhibition (mean % inhibition of cell growth) [7]: 88.2% | concentrations of test compound in the plasma, trend with dose [8, 13]: dose-dependent increases | concentration at 8 h [8, 9]: 10.3 ± 1.7 ng/mL | concentration at 8 h [8, 10]: 42.6 ± 29.1 ng/mL | concentration at 8 h [8, 11]: 59.4 ± 21.9 ng/mL | concentration at 8 h [8, 12]: 230 ± 111 ng/mL
